One data set relates to SL1344. Description: Effect of 45-minute incubation with PNA on SL1344 viability. The following applies: 10 μM, 45 minutes. The class given is cell-based, Salmonella enterica serovar typhimurium. The procedure: FIG. 13. Effect of 45-minute incubation with PNA treatment during infection. (A) Individual colonies of SL1344 were picked off of solid media and grown for 16 hours in luria broth supplemented with 30 μg/mL streptomycin, diluted 1:10, and regrown for 4 hours. After regrowth bacteria was diluted to a concentration equivalent to a […] multiplicity of infection of 200,000 cells/mL in 100 μL (conditions of HeLa cell infection after 24 hours growth). Cultures were suspended in phosphate buffered saline and treated with 10 μM of either α-lexA, α-rpsD, or plain phosphate buffered saline for 45 minutes before serial dilution, plated on solid media (40 μg/mL streptomycin), and incubated for 16 hours. Colony forming units were counted to enumerate percent infection with respect to no treatment. There is no significant difference (p>0.05) between α-lexA and α-rpsD at 45 minutes of treatment. […] Percent infection was then calculated in comparison to each replicates' no treatment. […]
Effect of PNA after 45 min of incubation during HeLa infection: SL1344 were cultured as described above and split 1:10 and regrown for 4 hours. […] Samples (10 μL) were taken at t=0 (before PNA addition) and t=45 min (after PNA treatment), and serially diluted, plated, and grown for 16 hours at 37° C. and CFU counted.

The next data set concerns E. coli MG1655. Description: Growth curves and CFU of lab strain treated with PNA. The class given is cell-based, Escherichia coli. The following applies: 10 μM. On the procedure: FIG. 7. Dose response of various PNA. Optical density of a 1:10,000 dilution of MG6155 from overnight liquid culture, treated with various concentrations of antisense inhibitors was measured for 3 biological replicates with error bars as standard deviations. Normalized growth was measured as the optical density at 22 hours normalized to no treatment. An asterisk (*) indicates a significant difference (p<0.05) as compared to no treatment for each inhibitor.
FIG. 8. Antisense Inhibitors targeting novel pathways can inhibit growth of E. coli. z. (A) Growth curves of E. coli MG1655 from a 1:10,000 dilution from an overnight culture, normalized to time t=0 with 10 μM of respective antisense inhibitor. […] (B) Colony forming units per milliliter of MG1655 E. coli for respective treatment as a function of time. The CFU/mL at t=0 represents the starting culture after a 1:100,000 dilution from overnight culture. […] Significance is measured as p<0.05.
(§1) Bacterial Cell culture: The clinical isolates were obtained from the lab of Nancy Madinger at the University of Colorado Anschutz campus. Clinical isolates were grown in Cation Adjusted Mueller Hinton broth (CAMHB) (Becton, Dickinson and Company 212322) at 37° C. with 225 rpm shaking or on solid CAMHB with 1.5% agar at 37° C. Clinical isolates were maintained as freezer stocks in 90% CAMHB, 10% glycerol at −80° C. Freezer stocks were streaked out onto solid CAMHB and incubated for 16 h to produce single colonies prior to experiments. For each biological replicate, a single colony was picked from solid media and grown for 16 h in liquid CAMHB prior to experiments. Non-clinical isolates, such as E. coli MG1655 (ATCC700926) and Salmonella entorica serovar typhimurium SL1344, were cultured in liquid 2% lysogeny broth (LB) or on 2% LB with 1.5% agar for solid plates. S. typhimurium cultures were supplemented with 30 μg/mL streptomycin and SL1344 strains containing plasmids pFPV (SL1344-mCherry) or pRG1 modified with a lacIq promoter (SL1344-Holin) were supplemented with 100 μg/mL ampicillin. Freezer stocks were stored in 60% LB broth, 40% glycerol at −80° C. Freezer stocks were streaked out onto solid LB and incubated for 16 h to produce single colonies before experiments. For biological replicates, single colonies were started in liquid LB and grown for 16 hours prior to experiments. E. coli MG1655 PNA growth experiments were carried out in M9 media (1×M9 minimal media salts solution (MP Biomedicals), 2.0 mM MgSO4, and 0.1 mM CaCl2 in sterile water) with 0.4% glucose.
PNA growth assay: Biological replicates were diluted 1:10,000 into treatment condition in 384-well plates and measured for 24 h in a Tecan GENios at 562 nm with a bandwidth of 35 nm. Media absorbance blanks were subtracted from data prior to analysis. […]

Data set [1] deals with 60 nucleotide single-stranded DNA fragments containing the complementation site. Description: Electrophoretic mobility shift assay (EMSA). It is filed as binding. The note with it: PNA 1 μM, DNA fragments 500 nM; complementary vs nonsense DNA. On the procedure: FIG. 5. PNA binding to off-target start codons. (A) The set of potential PNA candidates identified from the Keio collection were screened against the entire E. coli MG1655 genome to identify the distribution of off-target alignments when allowing for zero base mismatches in the alignment (left) and one base mismatch (right). In the 0-basepair mismatch analysis, all chosen PNAs that were tested had no other start codon alignments within the genome, whereas in the one base mismatch alignment, the number of start codon alignments distribute across zero to five alignments. (B) Electrophoretic mobility shift assay (EMSA) depicting 60 nucleotide single-stranded DNA fragments containing the complementation site for their corresponding PNA. Nonsense DNA was a random 60 nucleotide single-stranded DNA sequence that contained no complementation sites for PNA binding. […] Bands corresponding to PNA+complementary DNA are shifted above the unbound DNA (red triangles). Corresponding PNA+nonsense DNA bands are seen in lanes 3 and 5, with lane 3 having slight cross-over bands coming from lane 2. All lanes are from the same gel.
Gel Shift Mobility Assay: Synthetic DNA oligonucleotides that are 57-60 nucleotides in length were incubated with their respective PNA binding site at 37° C. overnight. The concentration of the DNA fragments was held at 500 nM, while the PNA was always in excess at 1 μM. […]
For orientation: In EMSA bound probe runs differently from free probe, usually more slowly.

A further data set has as its system ESBL KPN. The data set can be described thus: PNA growth assay (optical density) on clinical isolate. It is filed as cell-based, Klebsiella pneumoniae. The procedure:
as §1
PNA growth assay: Biological replicates were diluted 1:10,000 into treatment condition in 384-well plates and measured for 24 h in a Tecan GENios at 562 nm with a bandwidth of 35 nm. Media absorbance blanks were subtracted from data prior to analysis. Normalized optical density (OD) data is shown normalized to the time point where the “no treatment” growth curves reached saturation phase which varied across biological replicates.

This is an account of results in patent publication US20210087565A1, “ANTISENSE ANTIBIOTICS AND BACTERIAL SECRETION BASED DELIVERY SYSTEM TO ELIMINATE DRUG-RESISTANT BACTERIA” (priority 2018, published 2021).

Entries after “also recorded” stand apart in the source; their conditions may differ.

“α-lexA: 12-mer antisense PNA cGGAATGAAAGC (SEQ ID NO. 17) targeting lexA, conjugated to (KFF)3K cell penetrating peptide via AEEA-linker (antisense CGGAATGAAAGC; all peptide nucleic acid (PNA); (KFF)3K cell-penetrating peptide attached via AEEA linker)”: in the data set on SL1344, the “bacterial viability after co-incubation (in words)” value is recorded as “not long enough for the PNA to decrease bacterial viability”. The “effect on growth (in words)” value in the data set on E. coli MG1655 is “complete suppression of cell growth”. The “binding specificity by EMSA (in words)” value in data set [1] is listed as “showed specificity to their targets; also recorded: show binding specificity to their target”. For the same substance, the “monotherapy effect (in words)” value in the data set on ESBL KPN (10 μM) is reported as “no or minimal growth inhibition”.
In the case of “α-rpsD: 12-mer antisense PNA AGAAAATGGCAA (SEQ ID NO. 19) targeting rpsD, conjugated to (KFF)3K cell penetrating peptide via AEEA-linker (all peptide nucleic acid (PNA); (KFF)3K cell-penetrating peptide attached via AEEA linker)”, the “bacterial viability after co-incubation (in words)” value with SL1344 is on record as “not long enough for the PNA to decrease bacterial viability”. In the data set on E. coli MG1655, the “effect on growth (in words)” value is reported as “effective in killing; also recorded: complete suppression of cell growth”. Further, the “colony forming units per milliliter” value with E. coli MG1655 (within 2 hours of treatment) is reported as 0 CFU/mL. In addition, the “binding specificity by EMSA (in words)” value in data set [1] is “showed specificity to their targets; also recorded: show binding specificity to their target”. For the same substance, the growth inhibition in the data set on ESBL KPN (10 μM PNA, optical density vs no treatment at 16 hours) is listed as 82%±8.8.
